Source: patent US10208074B2, “Pyrazole compounds and method for making and using the compounds” (Rigel Pharmaceuticals, Inc., priority 2015, dated 2019)
Where a name gives a salt, the structure may show the parent alone. Read-outs that look alike come from different tables or passages of the source.

Columns and labels:
IL-23 (p19/p40) = test: IL23-p19 ELISA, Dendritic, LPS (compound screening using DC cells); format: cell-based, Human; details: PBMC-derived DC cells, IFNγ primed, LPS 1 μg/ml, 18 hours, 10 pt, read-out: IL23-p19 ELISA, Dendritic, LPS, 10 pt, EC50
Outline: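 Human PBMC-derived dendritic cells (7 d GM-CSF 100 ng/ml + IL-4 20 ng/ml), primed 24 h with IFNγ 50 ng/ml, pre-incubated 1 h with compound, then stimulated 18 h with LPS 1 μg/ml. Supernatant IL-23 measured by p19-capture/p40-detection chemiluminescent ELISA; CellTiter Glo checks cytotoxicity.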

IL-23p19 = test: LPS induced IL23p19 in THP-1 cells (with IFNγ primed) assay; format: cell-based, Human; details: THP-1 cells, IFNγ primed, LPS 1 ug/mL, 18 hours, 10 pt, read-out: IL23-p19 ELISA, THP1-IFNy, LPS, 10 pt EC50
Outline: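 THP-1 cells primed ~18 h with IFNγ (50 ng/mL), pre-incubated 1 h with compound at 37 °C, then stimulated 18 h with LPS (1 ug/mL final). Supernatant IL-23p19 measured by sandwich ELISA with chemiluminescent read-out; EC50 from curve fitting. Toxicity checked on the remaining cells by Cell Titer Glo.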

| EC50 (IL-23 (p19/p40); Homo sapiens, 18 h) [nM] | EC50 (IL-23p19; Homo sapiens, THP-1, 18 h) [nM] | Structure (SMILES) | other results |
| --- | --- | --- | --- |
| 14.4 | 13.8 | CN(C)[C@H]1C[C@@H](n2cc(NC(=O)c3ccc(-c4cn[nH]c4)o3)c(-c3ccccn3)n2)C1 [Compound I-34, N-(1-((1s,3s)-3-(dimethylamino)cyclobutyl)-3-(pyridin-2-yl)-1H-pyrazol-4-yl)-5-(1H-pyrazol-4-yl)furan-2-carboxamide formate] | – |
| 8 | 10.8 | O=C(Nc1cn(C2CN(C(=O)N3CCCC3)C2)nc1-c1ccccn1)c1ccc(-c2cn[nH]c2)o1 [Compound I-93, 5-(1H-Pyrazol-4-yl)-N-{3-(pyridine-2-yl)-1-(pyrrolidine-1-carbonyl)azetidin-3-yl}-1H-pyrazol-4-yl)furan-2-carboxamide, formate salt] | – |
| 325 | 1250 | Cn1cc(-c2ccc(C(=O)Nc3cn(C)nc3-c3ccccn3)o2)cn1 [Compound I-69, 5-(1-Methyl-1H-pyrazol-4-yl)-N-{1-methyl-3-(pyridine-2-yl)-1H-pyrazol-4-yl}furan-2-carboxamide, formate salt] | – |
| 97.2 | 206 | CCO[C@H]1C[C@@H](n2cc(NC(=O)c3ccc(-c4c[nH]nc4C)o3)c(-c3ccccn3)n2)C1 [Compound I-29, N-(1-((1,3-cis)-3-ethoxycyclobutyl)-3-(pyridin-2-yl)-1H-pyrazol-4-yl)-5-(3-methyl-1H-pyrazol-4-yl)furan-2-carboxamide] | – |
| 10400 | 4800 | CCO[C@H]1C[C@@H](n2cc(NC(=O)c3csc(-c4cnn(C)c4)n3)c(-c3ccccn3)n2)C1 [II-13, N-(1-((1,3-cis)-3-ethoxycyclobutyl)-3-(pyridin-2-yl)-1H-pyrazol-4-yl)-2-(1-methyl-1H-pyrazol-4-yl)thiazole-4-carboxamide] | – |
| 218 | 226 | CCO[C@H]1C[C@@H](n2cc(NC(=O)c3ccc(-c4cn[nH]c4)o3)c(-c3cccc(C(F)(F)F)n3)n2)C1 [Compound I-116, N-(1-((1s,3s)-3-ethoxycyclobutyl)-3-(6-(trifluoromethyl)pyridin-2-yl)-1H-pyrazol-4-yl)-5-(1H-pyrazol-4-yl)furan-2-carboxamide] | – |
| 21.8 | 49.7 | CCO[C@H]1C[C@@H](n2cc(NC(=O)c3ccc(-c4cn[nH]c4)o3)c(-c3ccccn3)n2)C1 [Compound I-28, N-(1-((1,3-cis)-3-ethoxycyclobutyl)-3-(pyridin-2-yl)-1H-pyrazol-4-yl)-5-(1H-pyrazol-4-yl)furan-2-carboxamide] | – |
| 276 | 1320 | Cn1cc(-c2ccc(C(=O)Nc3cn(C4COC4)nc3-c3ccccn3)o2)cn1 [Compound I-26, 5-(1-methyl-1H-pyrazol-4-yl)-N-(1-(oxetan-3-yl)-3-(pyridin-2-yl)-1H-pyrazol-4-yl)furan-2-carboxamide] | – |
| 403 | – | COCCOCCn1cc(NC(=O)c2ccc(-c3cn[nH]c3)o2)c(-c2ccccn2)n1 [Compound I-16, N-(1-(2-(2-methoxyethoxy)ethyl)-3-(pyridin-2-yl)-1H-pyrazol-4-yl)-5-(1H-pyrazol-4-yl)furan-2-carboxamide] | EC50 (IL-23p19): 125 nM |
| 15.2 | 75.8 | C[C@]1(O)C[C@H](n2cc(NC(=O)c3csc(-c4cn[nH]c4)n3)c(-c3ccccn3)n2)C1 [II-79, N-(1-((1r,3r)-3-hydroxy-3-methylcyclobutyl)-3-(pyridin-2-yl)-1H-pyrazol-4-yl)-2-(1H-pyrazol-4-yl)thiazole-4-carboxamide] | – |
| 93.2 | 34.8 | CC(=O)N1CC(n2cc(NC(=O)c3ccc(-c4cn[nH]c4)o3)c(-c3ccccn3)n2)C1 [Compound I-83, N-{1-(1-Acetylazetidin-3-yl)-3-(pyridine-2-yl)-1H-pyrazol-4-yl}-5-(1H-pyrazol-4-yl)furan-2-carboxamide, free base] | – |
| 399 | 433 | COCCn1cc(NC(=O)c2ccc(-c3cn[nH]c3)o2)c(-c2ncccn2)n1 [Compound I-7, N-(1-(2-methoxyethyl)-3-(pyrimidin-2-yl)-1H-pyrazol-4-yl)-5-(1H-pyrazol-4-yl)furan-2-carboxamide] | – |

Second part, the molecule before the results:

| Structure (SMILES) | EC50 (IL-23 (p19/p40); Homo sapiens, 18 h) [nM] | EC50 (IL-23p19; Homo sapiens, THP-1, 18 h) [nM] | other results |
| --- | --- | --- | --- |
| CCO[C@H]1C[C@@H](n2cc(NC(=O)c3csc(-c4c[nH]nc4C)n3)c(-c3cccc(C(F)(F)F)n3)n2)C1 [II-99, N-(1-((1,3-cis)-3-ethoxycyclobutyl)-3-(6-(trifluoromethyl)pyridin-2-yl)-1H-pyrazol-4-yl)-2-(3-methyl-1H-pyrazol-4-yl)thiazole-4-carboxamide] | 989 | 420 | – |
| CCOCCn1cc(NC(=O)c2ccc(-c3cnn(C(=O)OC(C)(C)C)c3)o2)c(-c2ccccn2)n1 [Compound I-4, tert-butyl 4-(5-((1-(2-ethoxyethyl)-3-(pyridin-2-yl)-1H-pyrazol-4-yl)carbamoyl)furan-2-yl)-1H-pyrazole-1-carboxylate] | 619 | 713 | – |
| CCOCCn1cc(NC(=O)c2ccc(-c3c(C)n[nH]c3C)o2)c(-c2ccccn2)n1 [Compound I-58, 5-(3,5-dimethyl-1H-pyrazol-4-yl)-N-(1-(2-ethoxyethyl)-3-(pyridin-2-yl)-1H-pyrazol-4-yl)furan-2-carboxamide formate] | 27500 | 2810 | – |
| CCOCCn1cc(NC(=O)c2csc(-c3c(C)n[nH]c3C)n2)c(-c2ccccn2)n1 [II-23, 2-(3,5-dimethyl-1H-pyrazol-4-yl)-N-(1-(2-ethoxyethyl)-3-(pyridin-2-yl)-1H-pyrazol-4-yl)thiazole-4-carboxamide, formic acid salt] | 16300 | 4760 | – |
| COCCn1cc(NC(=O)c2ccc(-c3cnn(COP(=O)(O)OC(C)(C)C)c3)o2)c(-c2ccccn2)n1 [Compound I-11, tert-butyl ((4-(5-((1-(2-methoxyethyl)-3-(pyridin-2-yl)-1H-pyrazol-4-yl)carbamoyl)furan-2-yl)-1H-pyrazol-1-yl)methyl) hydrogen phosphate] | 5190 | 4840 | – |
| CCO[C@H]1C[C@@H](n2cc(NC(=O)c3csc(-c4cnn(COP(=O)(O)O)c4)n3)c(-c3ccccn3)n2)C1 [II-80, (4-(4-((1-((1,3-cis)-3-ethoxycyclobutyl)-3-(pyridin-2-yl)-1H-pyrazol-4-yl)carbamoyl)thiazol-2-yl)-1H-pyrazol-1-yl)methyl phosphate bis-ammonium salt] | – | – | EC50 (IL-23 (p19/p40); phosphate bis-ammonium salt): 247 nM; EC50 (IL-23p19; phosphate bis-ammonium salt): 49.5 nM |
| O=C(Nc1cn(C2C=C(F)C2)nc1-c1ccccn1)c1csc(-c2cn[nH]c2)n1 (centres unmarked) [II-133, N-(1-(3-fluorocyclobut-2-en-1-yl)-3-(pyridin-2-yl)-1H-pyrazol-4-yl)-2-(1H-pyrazol-4-yl)thiazole-4-carboxamide formate] | – | – | EC50 (IL-23 (p19/p40); formate): 1520 nM; EC50 (IL-23p19; formate): 313 nM |
| CCO[C@@H]1CC[C@H](n2cc(NC(=O)c3ccc(-c4cn[nH]c4)o3)c(-c3ccccn3)n2)C1 [Compound I-133, N-(1-((1S,3R)-3-ethoxycyclopentyl)-3-(pyridin-2-yl)-1H-pyrazol-4-yl)-5-(1H-pyrazol-4-yl)furan-2-carboxamide] | – | – | EC50 (IL-23 (p19/p40)): 386 nM; EC50 (IL-23p19): 80.6 nM |
| CCO[C@H]1C[C@@H](n2cc(NC(=O)c3csc(-c4cn[nH]c4F)n3)c(-c3ccccn3)n2)C1 [II-72, N-(1-((1s,3s)-3-ethoxycyclobutyl)-3-(pyridin-2-yl)-1H-pyrazol-4-yl)-2-(5-fluoro-1H-pyrazol-4-yl)thiazole-4-carboxamide] | – | – | EC50 (IL-23 (p19/p40)): 140 nM; EC50 (IL-23p19): 1140 nM |
| O=C(Nc1cn(CCN2CCOCC2)nc1-c1ccccn1)c1csc(-c2cn[nH]c2)n1 [II-60, N-(1-(2-morpholinoethyl)-3-(pyridin-2-yl)-1H-pyrazol-4-yl)-2-(1H-pyrazol-4-yl)thiazole-4-carboxamide] | 53.3 | 47.3 | – |
| CCO[C@H]1CC[C@H](n2cc(NC(=O)c3csc(-c4cn[nH]c4)n3)c(-c3ncc(F)cc3F)n2)CC1 [II-180, N-(3-(3,5-difluoropyridin-2-yl)-1-((1r,4r)-4-ethoxycyclohexyl)-1H-pyrazol-4-yl)-2-(1H-pyrazol-4-yl)thiazole-4-carboxamide] | 263 | 80.2 | – |
| CCOCCn1cc(NC(=O)c2csc(-c3cn[nH]c3)n2)c(-c2ccccn2)n1 [II-25, N-(1-(2-ethoxyethyl)-3-(pyridin-2-yl)-1H-pyrazol-4-yl)-2-(1H-pyrazol-4-yl)thiazole-4-carboxamide] | – | – | EC50 (IL-23 (p19/p40)): 170 nM; EC50 (IL-23p19): 146 nM |
| O=C(Nc1cn(CCOCC(F)(F)F)nc1-c1ccccn1)c1csc(-c2cc[nH]n2)n1 [II-66, 2-(1H-pyrazol-3-yl)-N-(3-(pyridin-2-yl)-1-(2-(2,2,2-trifluoroethoxy)ethyl)-1H-pyrazol-4-yl)thiazole-4-carboxamide] | 244 | 106 | – |
